Source: patent US20220380368A1, “SPIROCYCLIC ANDROGEN RECEPTOR PROTEIN DEGRADERS” (THE REGENTS OF THE UNIVERSITY OF MICHIGAN, priority 2019, published 2022)
Where two headings read alike, the source gives them in different places.

What was measured:
[1] = Mouse PK studies after oral and IV dosing; assay type: in vivo; conditions: for F: PO 3 mg/kg vs IV 1 mg/kg; for AUC(0-t) / clearance / half-life / Vd / Cmax / Tmax: in vivo; for clearance: read-out: IV Cl (converted); for Vd: read-out: IV VSS
Protocol: The pharmacokinetics of representative Compounds of the Disclosure were determined after oral and IV dosing at the concentrations indicated in mouse (Table 7). […] The vehicles used in these studies are either (i) 10% PEG400+90% PBS (adjusted to pH to 8.0 by 0.5 N NaOH); or (ii) 100% PEG200.

AR protein = molecular target: T1, AR protein (Homo sapiens, UniProt P10275); assay: Western blotting analysis of AR protein levels in VCaP cells, band quantification, DC50/DC90; assay type: cell-based; conditions: VCaP cells, Table 6; read-out: VCaP DC50
T1 construct: endogenous in cells; host or cells: VCaP
T1 sequence (P10275 1-920): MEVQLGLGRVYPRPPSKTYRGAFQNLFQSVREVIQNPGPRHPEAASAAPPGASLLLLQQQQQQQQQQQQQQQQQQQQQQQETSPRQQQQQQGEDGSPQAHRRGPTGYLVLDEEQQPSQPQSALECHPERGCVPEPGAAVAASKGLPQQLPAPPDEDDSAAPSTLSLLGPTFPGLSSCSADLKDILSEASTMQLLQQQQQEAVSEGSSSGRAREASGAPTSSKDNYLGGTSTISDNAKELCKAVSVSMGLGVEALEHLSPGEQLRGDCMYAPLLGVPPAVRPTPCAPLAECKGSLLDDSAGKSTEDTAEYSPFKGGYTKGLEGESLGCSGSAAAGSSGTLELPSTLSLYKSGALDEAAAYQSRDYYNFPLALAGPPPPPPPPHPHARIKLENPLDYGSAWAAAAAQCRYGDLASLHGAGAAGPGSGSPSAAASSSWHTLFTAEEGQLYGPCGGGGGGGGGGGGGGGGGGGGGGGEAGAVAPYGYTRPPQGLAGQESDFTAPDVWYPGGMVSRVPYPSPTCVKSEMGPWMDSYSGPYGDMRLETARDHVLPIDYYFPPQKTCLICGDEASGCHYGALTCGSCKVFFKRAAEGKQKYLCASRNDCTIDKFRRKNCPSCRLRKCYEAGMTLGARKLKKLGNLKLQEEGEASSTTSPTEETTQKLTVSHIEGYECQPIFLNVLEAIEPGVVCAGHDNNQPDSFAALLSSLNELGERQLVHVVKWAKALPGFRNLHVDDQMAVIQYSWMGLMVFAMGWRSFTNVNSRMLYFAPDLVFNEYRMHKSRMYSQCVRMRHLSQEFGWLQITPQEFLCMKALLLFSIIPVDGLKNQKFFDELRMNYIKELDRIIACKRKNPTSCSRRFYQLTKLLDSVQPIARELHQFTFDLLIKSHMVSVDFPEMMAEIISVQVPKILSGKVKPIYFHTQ
Protocol: The appropriate cell line, e.g., prostate cancer LNCaP, Vcap, or 22RV1 cell line, was treated with Compounds of the Disclosure as indicated. The treated cells were lysed with RIPA buffer. […] GAPDH was used as a loading control.
Bands were quantified with ImageJ software. The relative numbers of each band obtained from normalization with its corresponding GAPDH level were compared with Prism 8 software. The DC50 values were produced from Prism 8, and the DC90 values were calculated with an equation=Bottom+(Top−Bottom)/(1+10^((Log EC50−X)*HillSlope) based on DC50 and Hillslope values.

[2] = iv, 1 mg/kg, IV, dose 1 mg/kg, read-out: IV AUC(0 − t)
[3] = iv, 1 mg/kg, IV, dose 1 mg/kg, read-out: IV T1/2 (converted)
[4] = po, 3 mg/kg, PO, dose 3 mg/kg, read-out: PO AUC(0 − t)
[5] = po, 3 mg/kg, PO, dose 3 mg/kg, read-out: PO T1/2 (converted)

With C[C@H]1CC2(CCN(c3ccc(C(=O)N4CCN(CC5CN(c6ccc7c(c6)C(=O)N(C6CCC(=O)NC6=O)C7=O)C5)CC4)nn3)CC2)CN1c1ccc(C#N)c(Cl)c1 (stereo partly drawn) [Cpd. No. 484, 2-chloro-4-((3S)-8-(6-(4-((1-(2-(2,6-dioxopiperidin-3-yl)-1,3-dioxoisoindolin-5-yl)azetidin-3-yl)methyl)piperazine-1-carbonyl)pyridazin-3-yl)-3-methyl-2,8-diazaspiro[4.5]decan-2-yl)benzonitrile] the F [1] was 46%, the AUC(0-t) [1, 2] was 7770 ng·h/mL and the clearance ([1]; iv, 1 mg/kg, IV, dose 1 mg/kg) was 2 mL/min/kg. The half-life [1, 3] was 6.1 h, the Vd ([1]; iv, 1 mg/kg, IV, dose 1 mg/kg) was 0.62 L/kg and the Cmax ([1]; po, 3 mg/kg) was 2380 ng/mL. The Tmax ([1]; po, 3 mg/kg) was 1.3 h, the AUC(0-t) [1, 4] was 10600 ng·h/mL and the half-life [1, 5] was 4.5 h. It also gave a DC50 (AR protein) of 1 to 10 nM.
C[C@H]1CC2(CCN(c3ccc(C(=O)N4CCN(CC5CN(c6cc7c(cc6F)C(=O)N(C6CCC(=O)NC6=O)C7=O)C5)CC4)nn3)CC2)CN1c1ccc(C#N)c(Cl)c1 (stereo partly drawn) [Cpd. No. 485, 2-chloro-4-((3S)-8-(6-(4-((1-(2-(2,6-dioxopiperidin-3-yl)-6-fluoro-1,3-dioxoisoindolin-5-yl)azetidin-3-yl)methyl)piperazine-1-carbonyl)pyridazin-3-yl)-3-methyl-2,8-diazaspiro[4.5]decan-2-yl)benzonitrile] showed an F [1] of 73%, an AUC(0-t) [1, 2] of 2350 ng·h/mL and a clearance ([1]; iv, 1 mg/kg, IV, dose 1 mg/kg) of 6.5 mL/min/kg. It also gave a half-life [1, 3] of 9.8 h, a Vd ([1]; iv, 1 mg/kg, IV, dose 1 mg/kg) of 2.95 L/kg and a Cmax ([1]; po, 3 mg/kg) of 1100 ng/mL. It also gave a Tmax ([1]; po, 3 mg/kg) of 1 h, an AUC(0-t) [1, 4] of 5150 ng·h/mL and a half-life [1, 5] of 7.2 h. It also gave a DC50 (AR protein) of 1 to 10 nM.
In the case of C[C@H]1CC2(CCN(c3cnc(C(=O)N4CCN(CC5CN(c6cc7c(cc6F)C(=O)N(C6CCC(=O)NC6=O)C7=O)C5)CC4)cn3)CC2)CN1c1ccc(C#N)c(Cl)c1 (stereo partly drawn) [Cpd. No. 488, 2-chloro-4-((3S)-8-(5-(4-((1-(2-(2,6-dioxopiperidin-3-yl)-6-fluoro-1,3-dioxoisoindolin-5-yl)azetidin-3-yl)methyl)piperazine-1-carbonyl)pyrazin-2-yl)-3-methyl-2,8-diazaspiro[4.5]decan-2-yl)benzonitrile], the F [1] is reported as 31%, the AUC(0-t) [1, 2] is reported as 233 ng·h/mL and the clearance ([1]; iv, 1 mg/kg, IV, dose 1 mg/kg) is reported as 70.2 mL/min/kg. For the same compound, the half-life [1, 3] was 5 h, the Vd ([1]; iv, 1 mg/kg, IV, dose 1 mg/kg) was 7.75 L/kg and the Cmax ([1]; po, 3 mg/kg) was 99.6 ng/mL. For the same compound, the Tmax ([1]; po, 3 mg/kg) was 1 h, the AUC(0-t) [1, 4] was 213 ng·h/mL and the half-life [1, 5] was 3.1 h. For the same compound, the DC50 (AR protein) was 1 to 10 nM.
With C[C@H]1CC2(CCN(c3ccc(C(=O)N4CCN(CC5CN(c6cc7c(cc6F)C(=O)N(C6CCC(=O)NC6=O)C7=O)C5)CC4)c(F)c3)CC2)CN1c1ccc(C#N)c(Cl)c1 (stereo partly drawn) [Cpd. No. 531, 2-chloro-4-((3S)-8-(4-(4-((1-(2-(2,6-dioxopiperidin-3-yl)-6-fluoro-1,3-dioxoisoindolin-5-yl)azetidin-3-yl)methyl)piperazine-1-carbonyl)-3-fluorophenyl)-3-methyl-2,8-diazaspiro[4.5]decan-2-yl)benzonitrile] the DC50 (AR protein) was 1 to 10 nM.
In the case of C[C@H]1CC2(CCN(c3ccc(C(=O)N4CCN(C5CN(c6cc7c(cc6F)C(=O)N(C6CCC(=O)NC6=O)C7=O)C5)CC4)cc3F)CC2)CN1c1ccc(C#N)c(Cl)c1 (stereo partly drawn) [Cpd. No. 532, 2-chloro-4-((3S)-8-(4-(4-(1-(2-(2,6-dioxopiperidin-3-yl)-6-fluoro-1,3-dioxoisoindolin-5-yl)azetidin-3-yl)piperazine-1-carbonyl)-2-fluorophenyl)-3-methyl-2,8-diazaspiro[4.5]decan-2-yl)benzonitrile], the DC50 (AR protein) is reported as < 1 nM.
For C[C@H]1CC2(CCN(c3ccc(C(=O)N4CCN(CC5CN(c6cc7c(cc6F)C(=O)N(C6CCC(=O)NC6=O)C7=O)C5)CC4)cc3F)CC2)CN1c1ccc(C#N)c(Cl)c1 (stereo partly drawn) [Cpd. No. 533, 2-chloro-4-((3S)-8-(4-(4-((1-(2-(2,6-dioxopiperidin-3-yl)-6-fluoro-1,3-dioxoisoindolin-5-yl)azetidin-3-yl)methyl)piperazine-1-carbonyl)-2-fluorophenyl)-3-methyl-2,8-diazaspiro[4.5]decan-2-yl)benzonitrile], the DC50 (AR protein) was < 1 nM.
In the case of C[C@H]1CC2(CCN(c3ccc(C(=O)N4CCC(CN5Cc6cc7c(cc6C5)C(=O)N(C5CCC(=O)NC5=O)C7=O)CC4)c(F)c3)CC2)CN1c1ccc(C#N)c(Cl)c1 (stereo partly drawn) [Cpd. No. 534, 2-chloro-4-((3S)-8-(4-(4-((6-(2,6-dioxopiperidin-3-yl)-5,7-dioxo-3,5,6,7-tetrahydropyrrolo[3,4-f]isoindol-2(1H)-yl)methyl)piperidine-1-carbonyl)-3-fluorophenyl)-3-methyl-2,8-diazaspiro[4.5]decan-2-yl)benzonitrile], the DC50 (AR protein) is reported as < 1 nM.
In the case of C[C@H]1CC2(CCN(c3ccc(C(=O)N4CCN(CC5CN(c6ccc7c(c6)C(=O)N(C6CCC(=O)NC6=O)C7=O)C5)CC4)cc3)CC2)CN1c1ccc(C#N)c(Cl)c1 (stereo partly drawn) [Cpd. No. 535, 2-chloro-4-((3S)-8-(4-(4-((1-(2-(2,6-dioxopiperidin-3-yl)-1,3-dioxoisoindolin-5-yl)azetidin-3-yl)methyl)piperazine-1-carbonyl)phenyl)-3-methyl-2,8-diazaspiro[4.5]decan-2-yl)benzonitrile], the DC50 (AR protein) is reported as < 1 nM.
With C[C@H]1CC2(CCN(c3ccc(C(=O)N4CCN(C5CN(c6cc7c(cc6F)C(=O)N(C6CCC(=O)NC6=O)C7=O)C5)CC4)nn3)CC2)CN1c1ccc(C#N)c(Cl)c1 (stereo partly drawn) [Cpd. No. 536, 2-chloro-4-((3S)-8-(6-(4-(1-(2-(2,6-dioxopiperidin-3-yl)-6-fluoro-1,3-dioxoisoindolin-5-yl)azetidin-3-yl)piperazine-1-carbonyl)pyridazin-3-yl)-3-methyl-2,8-diazaspiro[4.5]decan-2-yl)benzonitrile] the DC50 (AR protein) was < 1 nM.
With C[C@H]1CC2(CCN(c3ccc(C(=O)N4CC(N5CCN(c6cc7c(cc6F)C(=O)N(C6CCC(=O)NC6=O)C7=O)CC5)C4)nn3)CC2)CN1c1ccc(C#N)c(Cl)c1 (stereo partly drawn) [Cpd. No. 537, 2-chloro-4-((3S)-8-(6-(3-(4-(2-(2,6-dioxopiperidin-3-yl)-6-fluoro-1,3-dioxoisoindolin-5-yl)piperazin-1-yl)azetidine-1-carbonyl)pyridazin-3-yl)-3-methyl-2,8-diazaspiro[4.5]decan-2-yl)benzonitrile] the DC50 (AR protein) was 1 to 10 nM.
Compound C[C@H]1CC2(CCN(c3ccc(C(=O)N4CC(N5CCN(c6cc7c(cc6F)C(=O)N(C6CCC(=O)NC6=O)C7=O)CC5)C4)nc3)CC2)CN1c1ccc(C#N)c(Cl)c1 (stereo partly drawn) [Cpd. No. 538, 2-chloro-4-((3S)-8-(6-(3-(4-(2-(2,6-dioxopiperidin-3-yl)-6-fluoro-1,3-dioxoisoindolin-5-yl)piperazin-1-yl)azetidine-1-carbonyl)pyridin-3-yl)-3-methyl-2,8-diazaspiro[4.5]decan-2-yl)benzonitrile] has a DC50 (AR protein) of 1 to 10 nM.
For C[C@H]1CC2(CCN(c3ccc(C(=O)N4CC(N5CCN(c6cc7c(cc6F)C(=O)N(C6CCC(=O)NC6=O)C7=O)CC5)C4)cn3)CC2)CN1c1ccc(C#N)c(Cl)c1 (stereo partly drawn) [Cpd. No. 539, 2-chloro-4-((3S)-8-(5-(3-(4-(2-(2,6-dioxopiperidin-3-yl)-6-fluoro-1,3-dioxoisoindolin-5-yl)piperazin-1-yl)azetidine-1-carbonyl)pyridin-2-yl)-3-methyl-2,8-diazaspiro[4.5]decan-2-yl)benzonitrile], the DC50 (AR protein) was 1 to 10 nM.
